Among the data in the OligoGym collection are target mRNA inhibition values, retold here.

After the bases stand the sugars from the 5' end (letter, count) and the backbone: PS all phosphorothioate, else s phosphorothioate and o phosphodiester by linkage. Methylation of C is not given here. e = 2'-O-(2-methoxyethyl) (MOE); l = locked nucleic acid (LNA); k = constrained ethyl (cEt); d = 2'-deoxy (DNA)

Data set [1] addresses ANGPTL2. Conditions: ASO.
The target in data set [2] is KRAS. To be noted: ASO.

Take “CCATTTTGAGATTCCCC (sugars l1 d14 l2, PS)”: the values for the target mRNA inhibition in data set [1] (5 µM) and in data set [1] (25 µM) were 26.4% and 11.8%, respectively.

For the sequence “TCAGTGGTGAGATGGGTCAC (sugars l1 d17 l2, PS)”, the target mRNA inhibition in data set [1] (5 µM) stood at 29.1%; in data set [1] (25 µM), 40.7%.

Consider “GAATTTTCTTTACCTTAG (sugars l4 d11 l3, PS)”, for which the target mRNA inhibition is 41.4% in data set [1] (5 µM) and 56% in data set [1] (25 µM).

As for TGATGATGCGGTTGTA (sugars l3 d11 l2, PS), the target mRNA inhibition in data set [1] (5 µM) was 73.8%; in data set [1] (25 µM), 85.9%.

Turning to “CCAACCATAAATTAATTG (sugars l4 d10 l4, PS)”, the figures for the target mRNA inhibition in data set [1] (5 µM) and in data set [1] (25 µM) were 61.8% and 74.5%, respectively.

Regarding “CCTGGTAAAATCTTACA (sugars l3 d11 l3, PS)”, the target mRNA inhibition in data set [1] (5 µM) was found to be 37.4%; in data set [1] (25 µM), 48.2%.

Regarding “GCATTCCTCAGACAAATC (sugars l2 d14 l2, PS)”, the target mRNA inhibition in data set [1] (5 µM) was found to be 43.6%; in data set [1] (25 µM), 56.9%.

Regarding “TGATGATGCGGTTGTAGGT (sugars l1 d16 l2, PS)”, the target mRNA inhibition in data set [1] (5 µM) was found to be 45.5%; in data set [1] (25 µM) it was 63.9%.

Consider “GTGCTCTGTGAAGATTA (sugars l2 d11 l4, PS)”, for which the target mRNA inhibition in data set [1] (5 µM) stood at 66.6%; in data set [1] (25 µM), 81.3%.

In the case of “TCTCCTAAGAGCAAAGCT (sugars l2 d14 l2, PS)”, the target mRNA inhibition in data set [1] (5 µM) amounted to 37.2%; in data set [1] (25 µM), 52.9%.

For “CCACACCCAACATTTTA (sugars l2 d13 l2, PS)”, the figures for the target mRNA inhibition in data set [1] (5 µM) and in data set [1] (25 µM) were 56.8% and 63%, respectively.

With “CATCTAAGGAATGTGGT (sugars l4 d11 l2, PS)”, the figures for the target mRNA inhibition in data set [1] (5 µM) and in data set [1] (25 µM) were 63.7% and 71.9%, respectively.

In the case of “ACCATTTTGAGATTCCCC (sugars l1 d15 l2, PS)”, the target mRNA inhibition in data set [1] (5 µM) was -8.3%; in data set [1] (25 µM), 18.9%.

As for “CCAGTTCCTGAAGAAGTTA (sugars l1 d15 l3, PS)”, the target mRNA inhibition in data set [1] (5 µM) was determined as 27.8%; in data set [1] (25 µM) it was 30.1%.

Turning to “TGATGTGGTGAGACAGTA (sugars l2 d14 l2, PS)”, the target mRNA inhibition is 53.6% in data set [1] (5 µM) and 70.5% in data set [1] (25 µM).

Regarding “TTATAAAGACAAGAGCCT (sugars l3 d12 l3, PS)”, the target mRNA inhibition in data set [1] (5 µM) worked out at 34.5%; in data set [1] (25 µM) it was 47.3%.

Turning to GTAGGTAGGCGAGGAG (sugars l2 d12 l2, PS), the target mRNA inhibition in data set [1] (5 µM) is 16.3%; in data set [1] (25 µM), -18.7%.

As to “GTTTCTGACAAAGCCCG (sugars l1 d13 l3, PS)”, the target mRNA inhibition worked out at 79.6% in data set [1] (5 µM) and 84.3% in data set [1] (25 µM).

With “CAGGCCAACACTAACTCGG (sugars l1 d16 l2, PS)”, the target mRNA inhibition stood at 49% in data set [1] (5 µM) and 57% in data set [1] (25 µM).

With TTATAGGGTGGAATAAA (sugars l4 d9 l4, PS), the target mRNA inhibition in data set [1] (5 µM) came out at 18.2%; in data set [1] (25 µM) it was 26.9%.

Consider “TTACATGCCGCCAGAGGAA (sugars l1 d16 l2, PS)”, for which the target mRNA inhibition turned out to be 45.6% in data set [1] (5 µM) and 52.3% in data set [1] (25 µM).

Consider “AAGCATCATTGAAAATTC (sugars l4 d10 l4, PS)”, for which the target mRNA inhibition in data set [1] (5 µM) turned out to be 75.9%; in data set [1] (25 µM), 85.1%.

In the case of “TTCTGGTAGTGGGCACAG (sugars l1 d15 l2, PS)”, the figures for the target mRNA inhibition in data set [1] (5 µM) and in data set [1] (25 µM) were 36.8% and 37.1%, respectively.

Consider “TGAATGGAAGATACAAAACT (sugars l4 d12 l4, PS)”, for which the target mRNA inhibition in data set [1] (5 µM) amounted to 11.6%; in data set [1] (25 µM) it was 44.7%.

Turning to “TTGATGATGCGGTTGTAGG (sugars l1 d16 l2, PS)”, the figures for the target mRNA inhibition in data set [1] (5 µM) and in data set [1] (25 µM) were 44.8% and 55.9%, respectively.

Turning to ATGATGCGGTTGTAGG (sugars l2 d11 l3, PS), the target mRNA inhibition in data set [1] (5 µM) is 69.8%; in data set [1] (25 µM) it was 81.1%.

Consider “GCAGCTCATTGTTGAGCA (sugars l1 d15 l2, PS)”, for which the target mRNA inhibition in data set [1] (5 µM) is -2.7%; in data set [1] (25 µM), -0.5%.

Turning to “TTCTCCTAGAAAGCAGT (sugars l1 d12 l4, PS)”, the target mRNA inhibition came out at 43% in data set [1] (5 µM) and 61.9% in data set [1] (25 µM).

Consider “TAGCAGATGGGGCACAA (sugars l1 d12 l4, PS)”, for which the results for the target mRNA inhibition in data set [1] (5 µM) and in data set [1] (25 µM) were 22.9% and 12.4%, respectively.

As for “ACCATTTTGAGATTCCC (sugars l2 d13 l2, PS)”, the target mRNA inhibition amounted to 30% in data set [1] (5 µM) and 24.7% in data set [1] (25 µM).

Take “TGGTTGATGATGCGGTT (sugars l2 d13 l2, PS)”: the target mRNA inhibition was 81.7% in data set [1] (5 µM) and 87.5% in data set [1] (25 µM).

Regarding “GAACTCAGCCCAGTAGAC (sugars l1 d15 l2, PS)”, the values for the target mRNA inhibition in data set [1] (5 µM) and in data set [1] (25 µM) were -4.7% and 17.5%, respectively.

In the case of “GATGATGCGGTTGTAGGT (sugars l1 d15 l2, PS)”, the target mRNA inhibition amounted to 62.4% in data set [1] (5 µM) and 73% in data set [1] (25 µM).

On to “GATGATGCGGTTGTAGG (sugars l2 d13 l2, PS)”, for which the target mRNA inhibition was 67% in data set [1] (5 µM) and 78% in data set [1] (25 µM).

As for “GTGCCAAATCCTAGACA (sugars l2 d13 l2, PS)”, the target mRNA inhibition in data set [1] (5 µM) was 54.5%; in data set [1] (25 µM) it was 68.2%.

GCTTGCGGATGATCTC (sugars l2 d12 l2, PS): the figures for the target mRNA inhibition in data set [1] (5 µM) and in data set [1] (25 µM) were 38% and 70.9%, respectively.

Consider “GTTCTCCAGGGAAGTGTA (sugars l1 d15 l2, PS)”, for which the figures for the target mRNA inhibition in data set [1] (5 µM) and in data set [1] (25 µM) were 47.4% and 57.7%, respectively.

As for “GAGTTTGGATCATAGAA (sugars l4 d10 l3, PS)”, the figures for the target mRNA inhibition in data set [1] (5 µM) and in data set [1] (25 µM) were 41.2% and 65.8%, respectively.

For the sequence “AATTTACAGTTCTTTGTC (sugars l4 d10 l4, PS)”, the target mRNA inhibition is 78.2% in data set [1] (5 µM) and 83.3% in data set [1] (25 µM).

Consider “CTAGGCACTCAATCCCA (sugars l1 d14 l2, PS)”, for which the target mRNA inhibition in data set [1] (5 µM) worked out at 21.9%; in data set [1] (25 µM) it was 31.5%.

As to “ACTTCTATTCTTGGACC (sugars l2 d13 l2, PS)”, the target mRNA inhibition in data set [1] (5 µM) turned out to be 47.8%; in data set [1] (25 µM), 55.7%.

On to TATGCAATGTTAATTT (sugars k3 d10 k3, PS), for which, in data set [2] (A431, 2 µM), the target mRNA inhibition stood at 8%.

Consider “ATTTTGAGATTCCCCCAAAG (sugars l1 d17 l2, PS)”, for which the target mRNA inhibition was 10.8% in data set [1] (5 µM) and 2.99% in data set [1] (25 µM).

Consider “TGATTTGTCAGCAGGA (sugars kkdddddddddkdkdk, PS)”, for which the target mRNA inhibition in data set [2] (A431, 2 µM) came out at 15%.

Take AAATGCTAATAATTTA (sugars k3 d10 k3, PS): the target mRNA inhibition in data set [2] (A431, 2 µM) was determined as 13%.

For TTAGGGGAATTACAAG (sugars k3 d10 k3, PS), the target mRNA inhibition in data set [2] (A431, 2 µM) was 23%.

Take AAATCTGAATTAGTCT (sugars k3 d10 k3, PS): the target mRNA inhibition in data set [2] (A431, 2 µM) amounted to 25%.

“GGTGTAACATAGGTTA (sugars kdddddddddkekeke, PS)”: the target mRNA inhibition was found to be 1% in data set [2] (A431, 0.185 µM); 35% in data set [2] (A431, 0.556 µM); 56% in data set [2] (A431, 1.667 µM); 57% in data set [2] (A431, 2 µM); 71% in data set [2] (A431, 5 µM); 52.2% in data set [2] (NCI-H460, 0.037 µM).

On to ATCAACTGCATGCACC (sugars k3 d10 k3, PS), for which the target mRNA inhibition in data set [2] (A431, 2 µM) amounted to 42%.
